Patent publication US20210267865A1, “COSMETIC COMPOSITION FOR INCREASING SKIN EXFOLIATION” (LG HOUSEHOLD & HEALTH CARE LTD., priority 2018, published 2021)

Legend:
[1] = tested on: pig skin; experiment: Evaluation of pig skin exfoliation (number of exfoliated cells from biopsied pig skin); settings: for activity versus gluconolactone (PHA) or lactic acid (AHA) at pH 4: neutral or weakly acidic pH of 5-7
Experimental: The exfoliation evaluation method described in Journal of the European Academy of Dermatology and Venereology, 2014, 28, 415-423 was used. Specifically, pig skin was biopsied and a sample to be tested was added. Then, the number of exfoliated cells was measured with a cell counter and was plotted with water as a negative control group (0%) and 10% gluconolactone at pH 4 as a positive control group (100%).

[2] = tested on: stratum corneum of inside forearm and upper arm; experiment: Evaluation of exfoliation turnover enhancement by DHA staining (human skin test); type: in vivo; settings: for turnover time (TT100): polyol humectant content 10% or 50%, non-application group 20 days
Experimental: DHA staining for evaluating the speed of exfoliation turnover was conducted for 10 healthy males aged between 20 and 40 years according to the method described in Dermatology 1993, 186, 133-137. Prior to sample application, the color of the inside forearm and upper arm of the test subjects was measured with Chroma Meter. Then, a 1.5×1.5 cm gauze soaked with about 0.4 mL of 10% dihydroxyacetone (DHA) was attached to the inside forearm and upper arm for 8 hours. 48 hours later, the color of the part that was pigmented brown by DHA was compared with that before the sample application. Subsequently, while applying the sample twice a day, the time required to return to the original skin color was measured by measuring the skin color every day with Chroma Meter. TT (turnover time) 100% means the time required for the existing stratum corneum to be completely (100%) replaced with a new stratum corneum. In this experiment, the time required for the skin pigmented by DHA corneum to completely return to the original color was compared by regression analysis. The result was compared with that of the negative control group (20 days).

[3] = with glycerin, dipropylene glycol or 1,3-butylene glycol, polyol humectant content exceeding 10 wt %

N[C@@H](CO)C(=O)O [Serine, serine]
exfoliating effect ([1]; 5% serine with humectant mixtures (glycerin 1:DPG 1:1,3-BG 1) (FIG. 6)): decreased similarly
exfoliation effect ([1]; 5% serine, pH 6, concentration of glycerin 10% or higher (FIG. 1)): 0%
exfoliation activity ([1]; 5% serine, pH 6, dipropylene glycol or 1,3-butylene glycol exceeding 10% (FIGS. 3 and 4)): decreased below that of water (negative control group)
activity versus gluconolactone (PHA) or lactic acid (AHA) at pH 4 [1]: comparable to or better than
Exfoliation ability % ([1]; serine 0.5 wt %, glycerin 0 wt %): 56%
Exfoliation ability % ([1]; serine 0.5 wt %, glycerin 0.5 wt %): 53%
Exfoliation ability % ([1]; serine 0.5 wt %, glycerin 1 wt %): 34%
Exfoliation ability % ([1]; serine 0.5 wt %, glycerin 5 wt %): 19%
Exfoliation ability % ([1]; serine 0.5 wt %, glycerin 10 wt %): 13%
Exfoliation ability % ([1]; serine 5 wt %, glycerin 0 wt %): 91%
Exfoliation ability % ([1]; serine 5 wt %, glycerin 0.1 wt %): 85%
Exfoliation ability % ([1]; serine 5 wt %, glycerin 0.5 wt %): 86%
Exfoliation ability % ([1]; serine 5 wt %, glycerin 1 wt %): 59%
Exfoliation ability % ([1]; serine 5 wt %, glycerin 2 wt %): 47%
Exfoliation ability % ([1]; serine 5 wt %, glycerin 3 wt %): 23%
Exfoliation ability % ([1]; serine 5 wt %, glycerin 4 wt %): 26%
Exfoliation ability % ([1]; serine 5 wt %, glycerin 5 wt %): 21%
Exfoliation ability % ([1]; serine 5 wt %, glycerin 7 wt %): 16%
Exfoliation ability % ([1]; serine 5 wt %, glycerin 10 wt %): 16%
Exfoliation ability % ([1]; serine 5 wt %, glycerin 12 wt %): −2%
Exfoliation ability % ([1]; serine 5 wt %, glycerin 15 wt %): −5%
exfoliation effect [1, 3]: 0%
decrease of TT100% versus non-application group ([2]; 5% serine, applied twice a day): 6 days
TT100% (turnover time) ([2]; 5% serine, applied twice a day, non-application group 20 days (FIG. 13)): 14 days
turnover time (TT100) [2]: no significant difference
visual change after application for 10 days ([2]; serine alone at concentrations of 0.5% and 5% (FIG. 12)): effective
visual change after application for 10 days ([2]; serine with glycerin concentration 10% or 50% (FIG. 12)): no significant difference from the non-application group
TT100% (turnover time) ([2]; serine with glycerin concentration 10% or 50% (FIG. 13)): no significant difference from the non-application group

C[N+](C)(C)CC(O)CC(=O)[O-] (centres unmarked) [Carnitine, carnitine]
exfoliation effect ([1]; 5% carnitine, pH 7, concentration of glycerin higher than 10 wt % (FIG. 2)): 0%
exfoliation activity ([1]; 5% carnitine, pH 7, with 10% or 12% glycerin, dipropylene glycol or 1,3-butylene glycol (FIG. 5)): decreased to the levels where human skin test is meaningless
Exfoliation ability % ([1]; carnitine 0.5 wt %, glycerin 0 wt %): 61%
Exfoliation ability % ([1]; carnitine 0.5 wt %, glycerin 0.5 wt %): 50%
Exfoliation ability % ([1]; carnitine 0.5 wt %, glycerin 1 wt %): 18%
Exfoliation ability % ([1]; carnitine 0.5 wt %, glycerin 5 wt %): 11%
Exfoliation ability % ([1]; carnitine 0.5 wt %, glycerin 10 wt %): 0%
Exfoliation ability % ([1]; carnitine 5 wt %, glycerin 0 wt %): 100%
Exfoliation ability % ([1]; carnitine 5 wt %, glycerin 0.1 wt %): 89%
Exfoliation ability % ([1]; carnitine 5 wt %, glycerin 0.5 wt %): 91%
Exfoliation ability % ([1]; carnitine 5 wt %, glycerin 1 wt %): 55%
Exfoliation ability % ([1]; carnitine 5 wt %, glycerin 2 wt %): 53%
Exfoliation ability % ([1]; carnitine 5 wt %, glycerin 3 wt %): 30%
Exfoliation ability % ([1]; carnitine 5 wt %, glycerin 4 wt %): 19%
Exfoliation ability % ([1]; carnitine 5 wt %, glycerin 5 wt %): 12%
Exfoliation ability % ([1]; carnitine 5 wt %, glycerin 7 wt %): 5%
Exfoliation ability % ([1]; carnitine 5 wt %, glycerin 10 wt %): 4%
Exfoliation ability % ([1]; carnitine 5 wt %, glycerin 12 wt %): 0%
Exfoliation ability % ([1]; carnitine 5 wt %, glycerin 15 wt %): 0%
activity versus gluconolactone (PHA) or lactic acid (AHA) at pH 4 [1]: comparable to or better than
exfoliation effect [1, 3]: 0%
turnover time (TT100) [2]: no significant difference
